Source: paper PMC11823630, “In vitro potentiation of tetracyclines in Pseudomonas aeruginosa by RW01, a new cyclic peptide” (Antimicrobial Agents and Chemotherapy, 2024)
In brackets after ≈: the same amount, converted by molar mass.

What was measured:
[1] = test system: P. aeruginosa 125A; test: MIC, CLSI broth microdilution in BD Phoenix AST Broth; type: cell-based, Pseudomonas aeruginosa; settings: strain 125A
[2] = test system: P. aeruginosa 125B; test: as above; type: cell-based, Pseudomonas aeruginosa; settings: strain 125B
[3] = test system: P. aeruginosa 41A; test: as above; type: cell-based, Pseudomonas aeruginosa; settings: strain 41A
[4] = test system: P. aeruginosa 41B; test: as above; type: cell-based, Pseudomonas aeruginosa; settings: strain 41B
[5] = test system: P. aeruginosa PAO1; test: as above; type: cell-based, Pseudomonas aeruginosa
[6] = test system: P. aeruginosa PAOUW; test: as above; type: cell-based, Pseudomonas aeruginosa; settings: strain PAOUW
[7] = test system: P. aeruginosa PAOUW∆oprF; test: as above; type: cell-based, Pseudomonas aeruginosa
[8] = test system: P. aeruginosa PAOΔmexR; test: as above; type: cell-based, Pseudomonas aeruginosa
[9] = test system: P. aeruginosa PAOΔmexZ; test: as above; type: cell-based, Pseudomonas aeruginosa; settings: strain PAOΔmexZ
[10] = test system: P. aeruginosa PAOΔoprM; test: as above; type: cell-based, Pseudomonas aeruginosa
[11] = test system: P. aeruginosa PAO1, WT; test: MIC, E-test on MHA; type: cell-based; settings: Pseudomonas aeruginosa, PAO1, read-out: MIC, E-test
[12] = test system: PAO1 mutant MIN1_RW01_1, pmrB(Y98N); test: MIC, E-test on MHA; type: cell-based; settings: Pseudomonas aeruginosa, PAO1, read-out: MIC, E-test
[13] = test system: PAO1 mutant MIN1_RW01_4, pmrB(F124L); test: MIC, E-test on MHA; type: cell-based; settings: Pseudomonas aeruginosa, PAO1, read-out: MIC, E-test
[14] = test system: PAO1 mutant MIN2_RW01_1, pmrB(V215L); test: MIC, E-test on MHA; type: cell-based; settings: Pseudomonas aeruginosa, PAO1, read-out: MIC, E-test
[15] = test system: PAO1 mutant MIN2_RW01_3, parS(V152A); test: MIC, E-test on MHA; type: cell-based; settings: Pseudomonas aeruginosa, PAO1, read-out: MIC, E-test
[16] = test system: PAO1 mutant MIN2_RW01_4, pmrB(M292T); test: MIC, E-test on MHA; type: cell-based; settings: Pseudomonas aeruginosa, PAO1, read-out: MIC, E-test
[17] = test system: PAO1 mutant MIN4_RW01_1, pmrB(R429H); test: MIC, E-test on MHA; type: cell-based; settings: Pseudomonas aeruginosa, PAO1, read-out: MIC, E-test
[18] = test system: PAO1 mutant MIN4_RW01_2, pmrB(F124S); test: MIC, E-test on MHA; type: cell-based; settings: Pseudomonas aeruginosa, PAO1, read-out: MIC, E-test
[19] = test system: PAO1 mutant MIN4_RW01_3, pmrB(M292T); test: MIC, E-test on MHA; type: cell-based; settings: Pseudomonas aeruginosa, PAO1, read-out: MIC, E-test
[20] = test system: PAO1 mutant MIN4_RW01_4, pmrB(Y98N); test: MIC, E-test on MHA; type: cell-based; settings: Pseudomonas aeruginosa, PAO1, read-out: MIC, E-test
[21] = test system: PAO1 mutant MIN8_1, nalD(R3C), pilM(Q62X); test: MIC, E-test on MHA; type: cell-based; settings: Pseudomonas aeruginosa, PAO1, read-out: MIC, E-test
[22] = test system: PAO1 mutant MIN8_3, pilZ(nt18InsT); test: MIC, E-test on MHA; type: cell-based; settings: Pseudomonas aeruginosa, PAO1, read-out: MIC, E-test
[23] = test system: PAO1 mutant MIN8_4, pilZ(nt18InsT); test: MIC, E-test on MHA; type: cell-based; settings: Pseudomonas aeruginosa, PAO1, read-out: MIC, E-test
[24] = test system: PAO1 mutant MIN16_1, nalD(T43P); test: MIC, E-test on MHA; type: cell-based; settings: Pseudomonas aeruginosa, PAO1, read-out: MIC, E-test
[25] = test system: PAO1 mutant MIN16_2, nalC(aa9∆4), pilQ(nt46∆1); test: MIC, E-test on MHA; type: cell-based; settings: Pseudomonas aeruginosa, PAO1, read-out: MIC, E-test
[26] = test system: PAO1 mutant MIN16_4, nalC(T50P), pilM(Q62X); test: MIC, E-test on MHA; type: cell-based; settings: Pseudomonas aeruginosa, PAO1, read-out: MIC, E-test
[27] = Pseudomonas aeruginosa, agent alone, 37°C, 18–22 h, three biological replicates
[28] = antibiotic MIC alone vs with RW01 100 mg/L
[29] = antibiotic with RW01 at 100 mg/L
[30] = MIC of the antibiotic with fixed 100 mg/L RW01
[31] = strain PAO1, antibiotic with RW01 at 100 mg/L
[32] = strain PAOUWΔoprF (printed PAOΔoprF), antibiotic with RW01 at 100 mg/L
[33] = strain PAOΔmexR, antibiotic with RW01 at 100 mg/L
[34] = strain PAOΔoprM, antibiotic with RW01 at 100 mg/L

In the case of `C[C@H]1c2cccc(O)c2C(=O)C2=C(O)[C@]3(O)C(=O)C(C(N)=O)=C(O)[C@@H](N(C)C)[C@@H]3[C@@H](O)[C@@H]21` [Doxycycline, doxycycline], the MIC [1, 27] is reported as 4 µg/mL, the “Potentiation (fold)” value [1, 28] is reported as 8 fold and the FICI [1, 29] is reported as 0.320. For the same molecule, the FICI-determined effect [1, 29] was “Synergy (synergistic effect if FICI is ≤0.5)”, the MIC [2, 27] was 4 µg/mL and the “Antibiotic MIC + RW01 100 mg/L” value [2, 30] was 0.5 µg/mL. The “Potentiation (fold)” value [2, 28] was 8 fold, the FICI [2, 29] was 0.320 and the FICI-determined effect [2, 29] was “Synergy (synergistic effect if FICI is ≤0.5)”. For the same molecule, the MIC [3, 27] was 16 µg/mL, the “Antibiotic MIC + RW01 100 mg/L” value [3, 30] was 2 µg/mL and the “Potentiation (fold)” value [3, 28] was 8 fold. The FICI [3, 29] was 0.223, the FICI-determined effect [3, 29] was “Synergy (synergistic effect if FICI is ≤0.5)” and the MIC [4, 27] was 16 µg/mL. For the same molecule, the “Antibiotic MIC + RW01 100 mg/L” value [4, 30] was 2 µg/mL, the “Potentiation (fold)” value [4, 28] was 8 fold and the FICI [4, 29] was 0.223. The FICI-determined effect [4, 29] was “Synergy (synergistic effect if FICI is ≤0.5)”, the MIC ([5]; Pseudomonas aeruginosa, PAO1, strain PAO1, agent alone, 37°C, 18–22 h, three biological replicates, read-out: MIC) was 16 µg/mL and the “Antibiotic MIC + RW01 100 mg/L” value ([5]; strain PAO1, MIC of the antibiotic with fixed 100 mg/L RW01) was 1 µg/mL. The “Potentiation (fold)” value ([5]; strain PAO1, antibiotic MIC alone vs with RW01 100 mg/L) was 16 fold, the FICI [5, 31] was 0.258 and the FICI-determined effect [5, 31] was “Synergy (synergistic effect if FICI is ≤0.5)”. The MIC ([6]; Pseudomonas aeruginosa, agent alone, 37°C, 18–22 h, three biological replicates, read-out: MIC) was 32 µg/mL, the “Antibiotic MIC + RW01 100 mg/L” value [6, 30] was 4 µg/mL and the “Potentiation (fold)” value [6, 28] was 8 fold. The FICI [6, 29] was 0.223, the FICI-determined effect [6, 29] was “Synergy (synergistic effect if FICI is ≤0.5)” and the MIC ([7]; Pseudomonas aeruginosa, strain PAOUWΔoprF, agent alone, 37°C, 18–22 h, three biological replicates) was 16 µg/mL. The “Potentiation (fold)” value ([7]; strain PAOUWΔoprF (printed PAOΔoprF), antibiotic MIC alone vs with RW01 100 mg/L) was 16 fold, the FICI [7, 32] was 0.160 and the FICI-determined effect [7, 32] was “Synergy (synergistic effect if FICI is ≤0.5)”. The “Antibiotic MIC + RW01 100 mg/L” value ([7]; strain PAOUWΔoprF, MIC of the antibiotic with fixed 100 mg/L RW01) was 1 µg/mL, the MIC ([8]; Pseudomonas aeruginosa) was 64 µg/mL and the “Antibiotic MIC + RW01 100 mg/L” value ([8]; strain PAOΔmexR, MIC of the antibiotic with fixed 100 mg/L RW01) was 32 µg/mL. The “Potentiation (fold)” value ([8]; strain PAOΔmexR, antibiotic MIC alone vs with RW01 100 mg/L) was 2 fold, the FICI [8, 33] was 0.598 and the FICI-determined effect [8, 33] was “Additivity (additive effect if 0.5 < FICI ≤ 1.0)”. For the same molecule, the MIC [9, 27] was 64 µg/mL, the “Antibiotic MIC + RW01 100 mg/L” value [9, 30] was 4 µg/mL and the “Potentiation (fold)” value [9, 28] was 16 fold. For the same molecule, the FICI [9, 29] was 0.160, the FICI-determined effect [9, 29] was “Synergy (synergistic effect if FICI is ≤0.5)” and the MIC ([10]; Pseudomonas aeruginosa) was 0.5 µg/mL. The “Antibiotic MIC + RW01 100 mg/L” value ([10]; strain PAOΔoprM, MIC of the antibiotic with fixed 100 mg/L RW01) was 0.125 µg/mL, the “Potentiation (fold)” value ([10]; strain PAOΔoprM, antibiotic MIC alone vs with RW01 100 mg/L) was 4 fold and the FICI [10, 34] was 0.348. For the same molecule, the FICI-determined effect [10, 34] was “Synergy (synergistic effect if FICI is ≤0.5)”, the MIC [11] was 32 µg/mL (≈ 72 µM) and the MIC [12] was 96 µg/mL (≈ 216 µM). For the same molecule, the MIC [13] was 96 µg/mL (≈ 216 µM), the MIC [14] was 96 µg/mL (≈ 216 µM) and the MIC [15] was 256 µg/mL (≈ 576 µM). The MIC [16] was 64 µg/mL (≈ 144 µM), the MIC [17] was 256 µg/mL (≈ 576 µM) and the MIC [18] was 64 µg/mL (≈ 144 µM). The MIC [19] was 128 µg/mL (≈ 288 µM), the MIC [20] was 64 µg/mL (≈ 144 µM) and the MIC [21] was 256 µg/mL (≈ 576 µM). The MIC [22] was 128 µg/mL (≈ 288 µM), the MIC [23] was 256 µg/mL (≈ 576 µM) and the MIC [24] was 256 µg/mL (≈ 576 µM). The MIC [25] was 128 µg/mL (≈ 288 µM) and the MIC [26] was 128 µg/mL (≈ 288 µM).
